Test results: US9907838B2, “Composition and methods for treating ischemic damage” (GEMVAX & KAEL CO., LTD., priority 2013, dated 2018)

Assays:
[1] = system: renal ischemic-reperfusion injury mouse model; assay: Renal apoptosis by TUNEL staining in renal ischemic-reperfusion injury mouse model; type: in vivo, C57BL/6 mouse; conditions: 24 hours after ischemic reperfusion; 1000 nmol/kg 30 minutes before and 12 hours after IR; compared to PBS control group
Protocol: (§1) A renal ischemic-reperfusion injury mouse model was established by inducing ischemic reperfusion by bilaterally clamping renal pedicles for 30 minutes and restoring blood flow 30 minutes later by removing the clamps. Test groups were divided into an administered group (PEP 1), a control group (PBS without PEP 1), and a sham group (no bilateral clamping). PEP 1 was […] injected at a concentration of 1000 nmol/kg 30 minutes before and 12 hours after the induction of ischemic reperfusion.
(§2) C57BL/6 mouse (8 weeks old; Charles River Laboratories, Wilmington, Mass.) was used to induce renal ischemic-reperfusion injury. After blocking blood flow by clamping the renal pedicles with vascular forceps and inducing ischemia for […], reperfusion was performed.
(§3) The peptide PEP 1 was diluted in PBS to a concentration of 1000 nmol/kg and intraperitoneally (i.p.) injected twice 30 minutes before and 12 hours after the ischemic reperfusion. The test was conducted for the administered group (PEP 1), the control group (PBS), and the sham group (no ischemic reperfusion).
Renal apoptosis was evaluated by staining renal tissue with TUNEL stain 24 hours after the ischemic reperfusion. Renal paraffin sections were stained with TUNEL using a TUNEL staining kit (Roche Applied Science, Indianapolis, Ind., USA).

[2] = system: rat model of ischemic-reperfusion injury (abdominal skin flaps); assay: Flap survivability in rat skin flap model of ischemic-reperfusion injury; type: in vivo, Sprague-Dawley rats; conditions: 7 days after induction of ischemic reperfusion; 10 mg/500 μL intramuscularly 30 minutes before and 1, 2, 3, 4, 5 and 7 days after; PBS-treated group 34.69%±16.44%; p<0.05
Protocol: A rat model of ischemic-reperfusion injury was established by acquiring 5 cm×5 cm skin flaps from the abdomen of Sprague-Dawley rats (weighing 180-230 g), administering PEP1 or saline, inducing local ischemia through clamping and then restoring blood flow 7 hours later by removing the clamps (see FIG. 11).
Test groups were divided into an administered group (PEP 1), a control group (PBS without PEP 1), and a sham group (no ischemic-reperfusion injury induced). PEP 1 (10 mg/500 μL) or PBS (500 μL) was intramuscularly injected 30 minutes before and 1, 2, 3, 4, 5 and 7 days after the induction of ischemic reperfusion.
Flap survivability was measured 7 days after the induction of ischemic reperfusion. The flap survival rate was measured through analysis of digital images using the imageJ program.

[3] = system: renal ischemic-reperfusion injury mouse model; assay: Infiltration of innate immune cells (F4/80, Gr-1 staining) in renal tissue, renal ischemic-reperfusion injury mouse model; type: in vivo, C57BL/6 mouse; conditions: 24 hours after ischemic reperfusion; 1000 nmol/kg 30 minutes before and 12 hours after IR; compared to PBS control group
Protocol: as §1, §2, §3
Infiltration of innate immune cells was evaluated by immnohistologically staining renal tissue with F4/80 (macrophage maker) and Gr-1 (neutrophil maker) 24 hours after the ischemic reperfusion. […]

[4] = system: renal ischemic-reperfusion injury mouse model; assay: Renal tissue injury scoring after PAS staining in renal ischemic-reperfusion injury mouse model; type: in vivo, C57BL/6 mouse; conditions: 24 hours after ischemic reperfusion; 1000 nmol/kg 30 minutes before and 12 hours after IR; compared to PBS control group
Protocol: as §1, §2, §3
Renal tissue was stained with periodic acid-Schiff (PAS) stain according to the protocol of the manufacturer (Polysciences, Inc., Warrington, Pa., USA) 24 hours after the ischemic reperfusion. After the staining, renal tissue injury was evaluated through renal tissue injury scoring.

[5] = system: renal ischemic-reperfusion injury mouse model; assay: Inflammatory cytokine levels (IL-6, MCP-1, TNF-α) in renal tissue, renal ischemic-reperfusion injury mouse model; type: in vivo, C57BL/6 mouse; conditions: protein extracted from renal tissue 24 hours after ischemic reperfusion; 1000 nmol/kg twice; compared to PBS control group
Protocol: as §1, §2, §3
(§4) Blood was taken 24 hours after the ischemic reperfusion and the levels of blood urea nitrogen (BUN) and creatine as renal toxicity markers were measured. Renal tissue was taken and prepared into paraffin blocks for immunohistochemical and histological studies. Then, proteins were extracted and the levels of cytokines were measured. The concentrations of creatine and BUN were measured using an autoanalyzer (Technicon RA-1000; Bayer, Tarrytown, N.Y.).
Protein was extracted from renal tissue 24 hours after the ischemic reperfusion and the levels of IL-6, MCP-1 and TNF-α were measured according to the cytometric bead array method. Mouse IL-6, MCP-1, TNF-α ELISA kits were purchased from R&D Systems and the test was conducted according to the manufacturer's protocol.

[6] = system: renal ischemic-reperfusion injury mouse model; assay: Renal failure markers (BUN and creatine) in renal ischemic-reperfusion injury mouse model; type: in vivo, C57BL/6 mouse; conditions: blood 24 hours after ischemic reperfusion; 1000 nmol/kg 30 minutes before and 12 hours after IR; compared to PBS control group
Protocol: as §1, §2
The peptide PEP 1 was diluted in PBS to a concentration of 1000 nmol/kg and intraperitoneally (i.p.) injected twice 30 minutes before and 12 hours after the ischemic reperfusion. […]
as §4, with “Renal tissue was taken and prepared into paraffin blocks for immunohistochemical and histological studies.” left out

“EARPALLTSRLRFIPK (listed as Homo sapiens) [PEP 1]” was tested, and the “TUNEL-positive cells in renal tissue” value [1] was “remarkably decreased”, the flap survival rate [2] was 58.88%±11.44% and the “infiltration of macrophages (F4/80) into renal tissue” value [3] was “remarkably decreased”. The “infiltration of neutrophils (Gr-1) into renal tissue” value [3] was “remarkably decreased”, the “renal tissue injury (renal tissue injury scoring, PAS stain)” value [4] was “remarkably decreased” and the “IL-6 level in renal tissue” value [5] was “significantly decreased”. For the same sequence, the “MCP-1 level in renal tissue” value [5] was “significantly decreased”, the “TNF-α level in renal tissue” value [5] was “no significant difference” and the “blood urea nitrogen (BUN) level” value [6] was “significantly decreased”. For the same sequence, the creatine level [6] was “significantly decreased”.
